{"source": "patent US20160030409A1", "about": "“METHOD FOR RELIEVING CHRONIC PAIN” (priority 2014, published 2016)", "test_system": "chronic non-malignant pain due to fibromyalgia and osteoarthritis", "assay": "Trial experiment: Naropin injected into tender points of a patient with chronic non-malignant pain", "format": "in vivo", "experimental": "The patient was treated with the anesthetic Naropin® (generically known as ropivacaine), by injecting 0.5 cc of the anesthetic, by needle, into most tender points above and below the knees. Naropin was administered at a concentration of 5 mg/ml.\nSubsequently, after sufficient time had elapsed for the previously injected Naropin to leave the patient's body, 0.5 cc of Naropin was once again administered, at a concentration of 5 mg/ml, using the Medical International Technology, Inc. (MIT) Med-Jet® H™ needleless, pressure-based injector. The injector was set at a pressure of 150 psig. For knee pain, most tender points, approximately five to eight, above and below the knees were injected. For hip pain, most tender points, approximately five, above the trochanteric bursa were injected. For back pain, most tender points, approximately ten on each side of the back, around the sacroiliac joints were injected. A single injection was administered for each tender point selected for injection. The administration of the local anesthetic by needleless injection left painful welts at each injection site, which took approximately two to three weeks to disappear.", "data": [{"molecule": "CCCN1CCCC[C@H]1C(=O)Nc1c(C)cccc1C", "note": "[Naropin, ropivacaine]", "values": [{"measurement": "tenderness of tender points after the welts had disappeared", "setting": "0.5 cc at 5 mg/ml by Med-Jet H needleless pressure-based injector at 150 psig", "result": "no longer tender"}, {"measurement": "pain after the welts had disappeared", "setting": "0.5 cc at 5 mg/ml by Med-Jet H needleless pressure-based injector at 150 psig, tender points of knees, hip, back", "result": "pain was diminished"}, {"measurement": "pain relief", "setting": "0.5 cc at 5 mg/ml injected by needle into most tender points above and below the knees, middle-aged patient", "result": "No pain relief"}, {"measurement": "time for welts to disappear", "setting": "needleless injection, 150 psig", "result": "two to three"}, {"measurement": "injection site reaction", "setting": "needleless injection, 150 psig, each injection site", "result": "painful welts"}]}]}
